According to PMC6105164 (Cancer Chemotherapy and Pharmacology, 2018):

What was measured:
Format in all cases: in vivo, human
[1] = Urine concentration of Salirasib (LC-MS/MS), day 1; conditions: within 24 h, any dosing group (200, 600, 1000 mg sampled)
Procedure: Blood samples were collected 10 times on day 1 (before drug administration, and 0.5-, 1-, 1.5-, 2-, 4-, 6-, 8-, 12-, and 24-h post-administration), once on days 4, 7, and 14, and 9 times on day 21 (before morning dose, and 0.5, 1, 1.5, 2, 4, 6, 8, and 12 h after morning dose but before evening dose). Urine samples were collected from patients who received 200, 600, or 1000 mg on day 1 (before drug administration, and 0–6-, 6–12-, 12–24-h post-administration).

[2] = tested on: Japanese patients with relapsed/refractory solid tumors; test: Safety: dose-limiting toxicity and adverse events (NCI-CTCAE v.4.0); conditions: for Death: first and repeated regimens
From the text: Treatment was immediately terminated at the patient’s request when DLT occurred; the study physician decided that continuation was inappropriate because of AEs; or if the tumor was classified as progressive disease (PD) according to the Response Evaluation Criteria in Solid Tumor (RECIST) Guideline. In cases of DLT, patients were allowed to continue the regimen with dose adjustments upon providing written agreement.
Patients were registered when up to three patients received ≥ 60% of planned treatment in the regimen before DLT was evaluated for dose escalation. […] According to the DLT and pharmacokinetics data obtained by a given time, the recommended dose was determined and additional three patients were added to the dosing group a posteriori.
To evaluate the safety, vital signs (systolic and diastolic blood pressure, pulse rate, body temperature, and body weight), 12-lead electrocardiogram, clinical laboratory tests, chest X-ray, and performance status [Eastern Cooperative Oncology Group (ECOG)] were evaluated on predefined dates (Supplemental Table S1). Examined items in the clinical laboratory tests are listed in Supplemental Table S2.
AEs were graded in accordance with NCI-CTCAE v.4.0 and recorded. The study physicians determined whether the AEs were drug-related and recorded.

[3] = tested on: relapsed/refractory solid tumors; test: Exploratory evaluation of efficacy (RECIST)
From the text: Treatment was immediately terminated at the patient’s request when DLT occurred; the study physician decided that continuation was inappropriate because of AEs; or if the tumor was classified as progressive disease (PD) according to the Response Evaluation Criteria in Solid Tumor (RECIST) Guideline. In cases of DLT, patients were allowed to continue the regimen with dose adjustments upon providing written agreement. At the end of the regimen, patients were allowed to repeat the same regimen if all of the following criteria were met: no DLT occurred; the tumor was not determined as PD; the study physicians agreed; and the patient provided written informed consent. […] Diagnostic imaging using computed tomography, magnetic resonance imaging (MRI), fluorodeoxyglucose-positron emission tomography (PET), and/or bone scintigraphy was performed depending on the tumors and clinical symptoms on day 22 of first and repeated regimens or at discontinuation. Specific tumor markers (e.g., carcinoembryonic antigen for colorectal cancer and prostate-specific antigen for prostate cancer) were measured on day 22 of first and repeated regimens or at discontinuation. Based on the information obtained, the efficacy was scored in accordance with the RECIST guideline.

[4] = 100 mg twice-daily, completed = ≥ 60% of planned treatment

## CC(C)=CCC/C(C)=C/CC/C(C)=C/CSc1ccccc1C(=O)O [Salirasib, S-trans, trans-farnesylthiosalicylic acid]
[1]
  excretion in urine: not excreted in urine
[2]; 100 mg twice-daily
  Death: 0 (0.0) N (%)
[2]; 200 mg twice-daily
  Death: 0 (0.0) N (%)
[2]; 400 mg twice-daily
  Death: 0 (0.0) N (%)
[2]; 600 mg twice-daily
  Death: 0 (0.0) N (%)
[2]; 800 mg twice-daily
  Death: 0 (0.0) N (%)
[2]; 1000 mg twice-daily
  Death: 0 (0.0) N (%)
[2]; Total, all dose groups
  Death: 0 (0.0) N (%)
[2]; all dose groups
  deaths during the treatment period, in words: No patients died
[2]; human, in vivo
  AEs observed at grade ≥ 3: ALP increased: 3 (14.3) N (%)
  AEs observed at grade ≥ 3: AST increased: 1 (4.8) N (%)
  AEs observed at grade ≥ 3: Amylase increased: 1 (4.8) N (%)
  AEs observed at grade ≥ 3: Anemia: 2 (9.5) N (%)
  AEs observed at grade ≥ 3: Ascites: 1 (4.8) N (%)
  AEs observed at grade ≥ 3: Bilirubin increased: 1 (4.8) N (%)
  AEs observed at grade ≥ 3: Cancer pain: 1 (4.8) N (%)
  AEs observed at grade ≥ 3: Cholestatic jaundice: 1 (4.8) N (%)
  AEs observed at grade ≥ 3: Decreased appetite: 1 (4.8) N (%)
  AEs observed at grade ≥ 3: Diarrhea: 2 (9.5) N (%)
  AEs observed at grade ≥ 3: Hemoglobin decreased: 2 (9.5) N (%)
  AEs observed at grade ≥ 3: Hypercalcemia: 1 (4.8) N (%)
  AEs observed at grade ≥ 3: Hyponatremia: 2 (9.5) N (%)
  AEs observed at grade ≥ 3: Hypophosphatemia: 1 (4.8) N (%)
  AEs observed at grade ≥ 3: Lymphopenia: 1 (4.8) N (%)
  AEs observed at grade ≥ 3: Troponin T increased: 1 (4.8) N (%)
  AEs observed at grade ≥ 3: γ-GTP increased: 3 (14.3) N (%)
  AEs observed in ≥ 3 patients: Abdominal pain: 6 (28.6) N (%)
  AEs observed in ≥ 3 patients: Decreased appetite: 9 (42.9) N (%)
  AEs observed in ≥ 3 patients: Diarrhea: 18 (85.7) N (%)
  AEs observed in ≥ 3 patients: Nausea: 6 (28.6) N (%)
  AEs observed in ≥ 3 patients: Vomiting: 4 (19.0) N (%)
  All AEs: 21 (100) N (%)
  All drug-related AEs: 19 (90.5) N (%)
  Discontinuation because of AEs: 0 (0.0) N (%)
  Discontinuation because of drug-related AEs: 0 (0.0) N (%)
  Dose-limiting toxicity (DLT): 0 (0.0) N (%)
  Patients with AEs of grade ≥ 3: 9 (42.9) N (%)
  Patients with drug-related AEs of grade ≥ 3: 4 (19.0) N (%)
  Serious AEs: 1 (4.8) N (%)
  Serious drug-related AEs: 0 (0.0) N (%)
  patients in whom AEs were observed: 21 patients
[2]; human, in vivo, 28 days
  dose considered safe and tolerable: up to 1000 mg
[2]; in vivo
  AEs of grade ≥ 3, in words: not observed
  Dose-limiting toxicity (DLT), in words: no DLT was observed
  maximum tolerable dose: No maximum tolerable dose was discerned
  patients with drug-related AEs, in words: in all patients except two
  serious AE, in words: One serious AE (ascites)
[3]; 100 mg twice-daily
  Disease control rate (DCR): CR + PR + SD: 1 (33.3) N (%)
  Objective response rate (ORR): CR + PR: 0 (0.0) N (%)
  Progression-free survival, Median: 22 days
  Progression-free survival, Range: 16 to 53 days
  Response rate: Complete response (CR): 0 (0.0) N (%)
  Response rate: Partial response (PR): 0 (0.0) N (%)
  Response rate: Progressive disease (PD): 2 (66.7) N (%)
[3]; [4]
  Number of cycles completed, Median: 1
  Number of cycles completed, Range: 1–2
[3]; 200 mg twice-daily
  Disease control rate (DCR): CR + PR + SD: 3 (100.0) N (%)
  Objective response rate (ORR): CR + PR: 0 (0.0) N (%)
  Progression-free survival, Median: 213 days
